EC50 data for one compound are collected here from BindingDB's records for doi:10.1016/j.bmc.2019.07.003 (Tokyo Medical and Dental University, 2019).

A short description of the test: Transactivation of VDR in human Macrophage-like cell assessed as cell differentiation measured after 4 days by NBT dye-based assay.

On to `C[C@H](CCC(=O)O)[C@H]1CC[C@H]2[C@@H]3CC[C@@H]4C[C@H](OS(C)(=O)=O)CC[C@]4(C)[C@H]3CC[C@]12C`, for which the concentration giving a half-maximal response (EC50) – broadly, the concentration needed to bring the measured effect to its halfway point – is 1200 nM.
